We go through five compounds from patent US20260199535A1, “PCTA derivatives, conjugates thereof and uses thereof” (NOVARTIS AG, priority 2022, published 2026).

Read-outs that look alike come from different tables or passages of the source.

Series [1] is described as follows: Buffer stability of Example 17 radiolabeled with ^68GaCl3. The format is physicochemical. The conditions noted are these: ^68Ga-labeled, sodium acetate/acetic acid reaction buffer, t=4 hours; RCP at t=0 75%. Here is the method: A solution of sodium acetate trihydrate in water 1.5 M (740.0 μL), acetic acid (260.0 μL) and (((1S)-5-((2R)-2-amino-3-((2,5-dioxo-1-(4-(3,6,9-tris(carboxymethyl)-3,6,9-triaza-1(2,6)-pyridinacyclodecaphane-4-yl)butyl)pyrrolidin-3-yl)thio)propanamido)-1-carboxypentyl)carbamoyl)-L-glutamic acid (2 mM; 1.907 mg/mL; […]) were added to a 8 mL glass V-vial. This vial was sealed, the vacuum needle and the ^68Ga/HCl 0.1M needle were connected to the vial. The gallium generator was eluted to the reaction vial (approximately 260 MBq [^68Ga]GaCl3 in HCl 0.1M, 1.1 mL). The vacuum needle and the ^68Ga/HCl 0.1M needle were disconnected from the reaction vial. After shaking (600 rpm) at 45° C. for 30 min, the reaction mixture was left cooling down for few minutes. The radiochemical purity and stability were assessed using HPLC-1 conditions: Waters; column: Phenomenex Luna; particle size 2.5 μm; size: 4.6×100 mm; flow rate: 1 mL/min; mobile phase A: H2O+0.1% TFA and B: CH3CN; gradient: 10 to 80% solvent B in 9 min. RCP at t=0, 75% and stability t=4 hours, 74%.

Series [2] is described as follows: Buffer stability of Example 17 radiolabeled with ^177LuCl3. The format is physicochemical. The conditions noted are these: ^177Lu-labeled, formulation diluted with PBS, RCP at t=0 93%. Here is the method: To a mixture of sodium acetate in water (35.0 μL, 1.5 M), ascorbic acid in H2O (35.00 μL, 0.04 M), ethanol (58.5 μL) and acetic acid (1.5 μL) was added [^177Lu]LuCl3 ([…], 0.04 M HCl, 58.2 MBq). A solution of (((1S)-5-((2R)-2-amino-3-((2,5-dioxo-1-(4-(3,6,9-tris(carboxymethyl)-3,6,9-triaza-1(2,6)-pyridinacyclodecaphane-4-yl)butyl)pyrrolidin-3-yl)thio)propanamido)-1-carboxypentyl)carbamoyl)-L-glutamic acid (7.9 μL) of a 0.2 mM in water was added. After shaking (450 rpm) at 95° C. for 15 min, the reaction mixture was left cooling down for few minutes. The solution was diluted with 385 μl of PBS to keep the final formulation with EtOH below 9%. The radiochemical purity and stability were assessed using HPLC-1 conditions: Waters; column: phenomenex Luna; particle size 2.5 μm; size: 4.6×100 mm; flow rate: 1 mL/min; mobile phase A: H2O+0.1% TFA and B: CH3CN; gradient: 10 to 80% solvent B in 9 min.

The conditions of series [3]: crosslinker bond, 12-membered ring, CH3CN, 60.0 °C.
For series [4] the following is noted: crosslinker bond; 12-membered ring; intermediate G (1 eq)/DIPEA (5 eq); CH3CN; 15.6 mM; 60.0 °C.

With `N[C@@H](CSC1CC(=O)N(CCCCC2CN(CC(=O)O)CCN(CC(=O)O)Cc3cccc(n3)CN2CC(=O)O)C1=O)C(=O)NCCCC[C@H](NC(=O)N[C@@H](CCC(=O)O)C(=O)O)C(=O)O` (stereo partly drawn) [Example 17, (((1S)-5-((2R)-2-amino-3-((2,5-dioxo-1-(4-(3,6,9-tris(carboxymethyl)-3,6,9-triaza-1(2,6)-pyridinacyclodecaphane-4-yl)butyl)pyrrolidin-3-yl)thio)propanamido)-1-carboxypentyl)carbamoyl)-L-glutamic acid], the “stability (radiochemical purity by HPLC)” value in series [1] is 74%; in series [2] (t=4 hours) it was 94%; in series [2] (t=8 hours), 95%; in series [2] (t=24 hours), 94%.

As to `CC(C)(C)OC(=O)C[C@@H](NCCOCCN[C@H](CC(=O)OC(C)(C)C)c1ccccn1)C(=O)OC(C)(C)C`, the ring closure, isolated yield in series [3] (the molecule shown is the open-chain precursor, methyl 2,6-bis(bromomethyl)isonicotinate (1 eq)/DIPEA (5 eq), 20.9 mM) came out at 48.7%.

On to “Tetra-tert-butyl 2,2′-(1^4-(methoxycarbonyl)-6-oxa-3,9-diaza-1(2,6)-pyridinacyclodecaphane-3,9-diyl)(2R,2′R)-disuccinate”, for which, in series [3] (methyl 2,6-bis(bromomethyl)isonicotinate (1 eq)/DIPEA (5 eq), 17.9 mM), the ring closure, isolated yield was 57.1%.

As to “Tetra-tert-butyl 2,2′-(1^4-(3-((tert-butoxycarbonyl)amino)propoxy)-3,7-diaza-1(2,6)-pyridina-5(1,3)-benzenacyclooctaphane-3,7-diyl)(2R,2′R)-disuccinate”, the ring closure, isolated yield in series [3] (2,6-bis(bromomethyl)pyridine (1 eq)/DIPEA (5 eq), 32.6 mM) came to 55.3%.

In series [4], “Tri-tert-butyl 2,2′,2″-(1^4-(3-((tert-butoxycarbonyl)amino)propoxy)-3,6,9-triaza-1(2,6)-pyridinacyclodecaphane-3,6,9-triyl)(2S,2′S,2″S)-tripropionate” gave a ring closure, yield after HPLC of 52%.
